According to patent publication US10344037B2, “Use of the FL-one hundred eighteen core chemical structure platform to generate FL-one hundred eighteen derivatives for treatment of human disease” (priority 2014, dated 2019):
Like-named read-outs stand apart in the source and are kept apart here.

Legend:
[1] = tested on: DU145 prostate cancer cells; assay: Cell growth inhibition, cell counting after 72 h; format: cell-based, human
Source text: (§1) Each dot is the mean±SD derived from 3 independent assays.
(§2) Irinotecan and topotecan are the only two analogs derived from direct modification of camptothecin (CPT) that are approved by the FDA for cancer treatment in clinical practice. […] In this regard, we obtain one DU145 parental prostate cancer cell line and two DU145-derived sub-lines with Top1 mutations (DU145-RC0.1, DU145-RC1).

[2] = tested on: RC0.1 (DU145-RC0.1) cells; assay: Cell growth inhibition, DU145 sub-line with Top1 mutation; format: cell-based, human
Source text: as §1, §2

RC1 (DU145-RC1) cells [3] = assay: as above; format: cell-based, human
Source text: as §1, §2

[4] = tested on: DU145 prostate cancer cells; details: DU-145; adopted from Urasaki Y et al.; cited from earlier work
[5] = tested on: RC0.1 (DU145-RC0.1) cells; details: adopted from Urasaki Y et al.; cited from earlier work
RC1 (DU145-RC1) cells [6] = details: adopted from Urasaki Y et al.; cited from earlier work
[7] = tested on: HCT116 colon cancer cells; assay: cells; format: cell-based, human; details: for RP: IC50 of topotecan divided by IC50 of the drug
Procedure: (§3) Cancer cell viability and growth are determined by MTT assay. […] MTT is used as a colorimetric substrate for measuring cell viability and growth. When cell growth is inhibited, there is an alteration of cellular redox activity, and thus rendering cells unable to reduce the MTT dye. Cells are seeded in 96 well plates overnight and then treated with or without a compound/drug in the presence or absence of an protein molecule inhibitor (e.g. ABCG2 inhibitor ko143) for 48-72 hours, MTT is added to a final concentration 0.5 mg/ml. Cells are continuously incubated in a 5% CO2 incubator at 37° C. for 4 h with MTT and then lysed with a cell lysis buffer (20% SDS, 50% N,N-dimethylformamide, pH 4.7), 100 μl per well, for 4 h in the incubator. Subsequently, cell absorbance in each well is measured at 570 nm with an Ultra Microplate Reader (Bio-Tek Instruments). Results are reported as the mean±SD from 3-5 independent assays at each point. […] After 72 hours, media is removed and cells are harvested using 0.5 ml of 0.25% Trypsin-EDTA. Cells are counted and viability is analyzed on a Vi-CELL XR Cell Viability Analyzer (Beckman Coulter).

HCT116-NS6 cells = assay: cells; format: cell-based, human; details: for RP: IC50 of topotecan divided by IC50 of the drug
Procedure: as §3

HCT116-C4 cells = assay: cells; format: cell-based, human; details: for RP: IC50 of topotecan divided by IC50 of the drug
Procedure: Cancer cell viability and growth are determined by MTT assay. […] MTT is used as a colorimetric substrate for measuring cell viability and growth. When cell growth is inhibited, there is an alteration of cellular redox activity, and thus rendering cells unable to reduce the MTT dye. Cells are seeded in 96 well plates overnight and then treated with or without a compound/drug in the presence or absence of an protein molecule inhibitor (e.g. ABCG2 inhibitor ko143) for 48-72 hours, MTT is added to a final concentration 0.5 mg/ml. Cells are continuously incubated in a 5% CO2 incubator at 37° C. for 4 h with MTT and then lysed with a cell lysis buffer (20% SDS, 50% N,N-dimethylformamide, pH 4.7), 100 μl per well, for 4 h in the incubator. Subsequently, cell absorbance in each well is measured at 570 nm with an Ultra Microplate Reader (Bio-Tek Instruments). Results are reported as the mean±SD from 3-5 independent assays at each point. Alternatively, for FIG. 16, FIG. 17 and FIG. 19, cells are plated at a density of 300,000 cells/well in 6-well plates; cells are allowed to attach on the plate overnight. […] After 72 hours, media is removed and cells are harvested using 0.5 ml of 0.25% Trypsin-EDTA. Cells are counted and viability is analyzed on a Vi-CELL XR Cell Viability Analyzer (Beckman Coulter).

HCT116-A2 cells = assay: cells; format: cell-based, human; details: for RP: IC50 of topotecan divided by IC50 of the drug
Procedure: as §3

HCT116-G7 cells = assay: cells; format: cell-based, human; details: for RP: IC50 of topotecan divided by IC50 of the drug
Procedure: as §3

HCT116-C8 cells = assay: cells; format: cell-based, human; details: for RP: IC50 of topotecan divided by IC50 of the drug
Procedure: as §3

ABCG2 in HCT116-A2 cells [8] = format: cell-based, human
Procedure: Cell numbers are then counted at each drug concentration used. […] Cell numbers at each dot is the mean±SD derived from 3 independent assays. Data are plotted graphically and EC50 values are calculated using GraphPad Prism 6.0.
ABCG2 positive HCT116-derived colon cancer cells (HCT116-A2) grown at sub-confluence are treated with a series of concentrations of topotecan in triplicate for 72 hours in the presence or absence of Ko143 at 1 μM concentrations as shown. Cell numbers are then counted at each topotecan concentration used. […] Cell numbers at each dot is the mean±SD derived from 3 independent assays. Data are plotted graphically and EC50 values and R-values are calculated using GraphPad Prism 6.0.
Clinically, development of resistance to irinotecan and topotecan occurs commonly during treatment, often involving the upregulation of ABCG2. By increasing the rate of drug export, ABCG2 decreases the amount of SN-38, irinotecan or topotecan that accumulates intracellularly, thereby protecting cancer cells from the cytotoxic effects of these chemotherapeutic drugs.

ABCG2 in HCT116-A2 cells [9] = assay: Growth inhibition after ABCG2 shRNA silencing; format: cell-based, human; details: 72 hours
Procedure: Actin is internal control. B and C. […] Cells at sub-confluence are infected with lentiviral particles containing nonsense shRNA (ns), or AGCG2-specific shRNA (sh1, sh2) to silence ABCG2 expression in the cells. […] Viability for each dose was determined using a ViCELL XR cell viability analyzer and normalized to that of DMSO control. Error bars=SEM, n=3 independent experiments. Data are plotted graphically and EC50 values are calculated using GraphPad Prism 6.0.

ABCG2 in HEK293 cells [10] = assay: Intracellular drug concentration by flow cytometry; format: cell-based, human
Procedure: Cells are then incubated for 3 h in 37 C and 5% CO2, with manual agitation every 30 min. After incubation, cells are pelleted and supernatant is removed. Cell pellets are washed twice with ice-cold PBS, and then suspended in 300 uL ice-cold PBS, and placed on ice until analysis. Cells are analyzed on a LSR II flow cytometer (BD Biosciences, San Jose Calif.) with a 355 nm laser and a 540 nm band-pass filter to detect emission. Median fluorescence intensity (MFI) of each drug+/−Ko143 is compared.

HCT-8 cells = assay: Colony formation after 2 h or 6 h drug treatment; format: cell-based, human
Procedure: Subconfluent SW620, HCT-8, and HCT-116 cells were lysed and analyzed for the expression of MDR1 and ABCG2 using western blots (WB). Actin is the internal control. […] Cell growth/viability was then analyzed by MTT assays. Each time point in the individual curve is the mean±SD from 3 to 5 independent assays. […] Drugs were then washed out and cells were allowed to grow in new medium without drugs for 2 weeks. Cell colonies were stained with crystal violet solution; images were digitally taken. Triplicate results are shown.
Cell growth is then measured and the data are plotted as percentage of growth inhibition (no drug treatment was set at 0%). […] C. […] Representative cancer cell images were taken with a digital camera under phase-contrast microscope.

in vivo = details: SCID, mouse, in vivo, ip
Procedure: Individual tumor curves derived from individual mice are shown. A. Mice with FaDu head-&-neck tumor xenografts were first treated with irinotecan at its maximum tolerated dose (MTD, 100 mg/kg, IP) weekly for 4-5 times (black arrow). […] B. Mice with FaDu tumor xenografts were first treated with topotecan at its MTD (4 mg/kg, IP) via daily×5 schedules for 4 cycles (each black arrow is one cycle). […] C. Mice with SW620 CRC xenografts were first treated with irinotecan at its MTD (IP, weekly×4, black arrow). […] D. Mice with SW620 xenograft tumors were first treated with topotecan at its MTD.

ABCG2 in HEK293 cells [11] = tested on: ABCG2 in HEK293 cells
survivin = assay: Western blot for survivin expression in FaDu cells; format: cell-based, human; details: 24 hours
[12] = tested on: human umbilical vein endothelial cells (HUVECS); assay: Cell growth and viability, MTT; format: cell-based; details: 72 hours
cancer cells = assay: Cell growth and viability, MTT; format: cell-based, human; details: 72 hours
Procedure: Actin is an internal control for equal protein loading. […] Subconfluent cancer cells as shown are treated with a series of concentrations of crolibulin as shown (0-100 μM) for 72 hours. Cell growth and viability are determined via MTT assay. Each curve is the mean±SD from 4 independent assays.
Crolibulin is an anticancer drug that targets endothelial cells of the cancer vasculature system. Therefore, crolibulin is considered as a vascular disrupt agent (VDA).

[13] = DU-145, IC50 of topotecan divided by IC50 of the drug

| SMILES | RP (relative potency) [1, 13] | IC50 [4] [nM] | IC50 [5] [nM] | IC50 (RC1 (DU145-RC1) cells [6]) [nM] | RP (relative potency) [2] | RP (relative potency) (RC1 (DU145-RC1) cells [3]) | RP [7] | RP (HCT116-NS6 cells) | RP (HCT116-C4 cells) | RP (HCT116-A2 cells) | RP (HCT116-G7 cells) | RP (HCT116-C8 cells) | further results |
| --- | --- | --- | --- | --- | --- | --- | --- | --- | --- | --- | --- | --- | --- |
| CC[C@@]1(O)C(=O)OCc2c1cc1n(c2=O)Cc2cc3ccccc3nc2-1 [CPT, camptothecin] | 3.17 | 60 | 63300 | 21700 |  |  |  |  |  |  |  |  | RP (relative potency) ([2]; RC0.1, IC50 of topotecan divided by IC50 of the drug): 0.97; RP (relative potency) (RC1 (DU145-RC1) cells [3]; RC1, IC50 of topotecan divided by IC50 of the drug): 2.69 |
| CCc1c2c(nc3ccc(O)cc13)-c1cc3c(c(=O)n1C2)COC(=O)[C@]3(O)CC [SN-38] |  | 40 | 11700 | 4430 | 5.24 | 13.2 | 2.474 | 5.055 | 3.337 | 2.499 | 4.048 | 44.69 | RP (relative potency) [1]: 4.75; IC50 [7]: 0.192 nM; IC50 (HCT116-NS6 cells): 1.11 nM; IC50 (HCT116-C4 cells): 25.7 nM; IC50 (HCT116-A2 cells): 43.4 nM; IC50 (HCT116-G7 cells): 4.76 nM; IC50 (HCT116-C8 cells): 8.47 nM; effect of ABCG2 inhibitor Ko143 on potency (ABCG2 in HCT116-A2 cells [8]; HCT116-A2 cells, 72 hours, Ko143 1 μM): Ko143 restores potency to SN-38; effect of silencing of ABCG2 on cell growth inhibition (ABCG2 in HCT116-A2 cells [9]): significantly sensitizes SN-38 to inhibit cell growth |
| CC[C@@]1(O)C(=O)OCc2c1cc1n(c2=O)Cc2cc3c(CN(C)C)c(O)ccc3nc2-1 [Topotecan, topotecan] | 1 | 190 | 61200 | 58300 | 1 | 1 | 1 | 1 | 1 | 1 | 1 | 1 | IC50 ([7]; Homo sapiens, HCT-116): 0.747 nM; IC50 (HCT116-NS6 cells; Homo sapiens): 5.64 nM; IC50 (HCT116-C4 cells; Homo sapiens): 85.8 nM; IC50 (HCT116-A2 cells; Homo sapiens): 108 nM; IC50 (HCT116-G7 cells; Homo sapiens): 19.3 nM; IC50 (HCT116-C8 cells; Homo sapiens): 379 nM; effect of ABCG2 inhibitor Ko143 on potency (ABCG2 in HCT116-A2 cells [8]): ABCG2 is also a topotecan resistance factor; effect of ABCG2 overexpression on intracellular concentration (ABCG2 in HEK293 cells [10]): decreases intracellular concentration; colony formation inhibition, 6 hours versus 2 hours of treatment (HCT-8 cells): significantly better colony formation inhibition; MTD (in vivo): 4 mg/kg; effect of ABCG2 overexpression on IC50 for inhibition of cell growth (ABCG2 in HEK293 cells [11]): significantly increases IC50 |
| COc1cc([C@H]2C(C#N)=C(N)Oc3c2ccc(N)c3N)cc(Br)c1OC [crolibulin, reference compound] |  |  |  |  |  |  |  |  |  |  |  |  | survivin expression (survivin): strongly induce survivin expression; sensitivity of HUVEC cells [12]: sensitive to crolibulin inhibition; sensitivity of cancer cells (cancer cells): resistant to crolibulin inhibition |
